{"source": "ChEMBL document CHEMBL3885861", "about": "“Open TG-GATES”", "species": "Rattus norvegicus", "assay": "Open TG-GATES - Regimen: Single", "type": "toxicity, organism-based, Sprague-Dawley", "parameters": "regimen Single, gender Male, age 6 weeks", "settings": "in vivo, po, 2000 mg/kg, route gavage, dose level High; for Bas / Eos / Ht / Lym / MCH / Mono / Neu / RBC / Ret: tissue Blood; for KIDNEY_L / KIDNEY_R / KIDNEY_TOTAL: tissue Kidney; for LIVER: tissue Liver; for ALP / ALT / AST / CRE / Ca / DBIL / IP / K / LDH / Na / PL / RALB / TBIL / TC / TG / TP / gamma-GTP: tissue Plasma"}
{"smiles": "COc1cc2ncnc(Nc3ccc(F)c(Cl)c3)c2cc1OCCCN1CCOCC1", "note": "[GEFITINIB]", "values": [{"measurement": "TERMINAL_BW", "setting": "3 h", "value": 214.3, "unit": "g"}, {"measurement": "Bas", "setting": "3 h", "value": 0, "unit": "%"}, {"measurement": "Eos", "setting": "3 h", "value": 0.6, "unit": "%"}, {"measurement": "Ht", "setting": "3 h", "value": 37.2, "unit": "%"}, {"measurement": "Lym", "setting": "3 h", "value": 68, "unit": "%"}, {"measurement": "MCH", "setting": "3 h", "value": 21.3, "unit": "pg"}, {"measurement": "Mono", "setting": "3 h", "value": 3, "unit": "%"}, {"measurement": "Neu", "setting": "3 h", "value": 27.6, "unit": "%"}, {"measurement": "RBC", "setting": "3 h", "value": 591, "unit": "x10_4/ul"}, {"measurement": "Ret", "setting": "3 h", "value": 9.4, "unit": "%"}, {"measurement": "KIDNEY_L", "setting": "3 h", "value": 0.9, "unit": "g"}, {"measurement": "KIDNEY_R", "setting": "3 h", "value": 0.9, "unit": "g"}, {"measurement": "KIDNEY_TOTAL", "setting": "3 h", "value": 1.8, "unit": "g"}, {"measurement": "LIVER", "setting": "3 h", "value": 9.4, "unit": "g"}, {"measurement": "ALP", "setting": "3 h", "value": 1590.6, "unit": "IU/L"}, {"measurement": "ALT", "setting": "3 h", "value": 71, "unit": "IU/L"}, {"measurement": "AST", "setting": "3 h", "value": 87.4, "unit": "IU/L"}, {"measurement": "CRE", "setting": "3 h", "value": 0.1, "unit": "mg/dL"}, {"measurement": "Ca", "setting": "3 h", "value": 9.9, "unit": "mg/dL"}, {"measurement": "DBIL", "setting": "3 h", "value": 0.012, "unit": "mg/dL"}, {"measurement": "IP", "setting": "3 h", "value": 9.1, "unit": "mg/dL"}, {"measurement": "K", "setting": "3 h", "value": 3.9, "unit": "meq/L"}, {"measurement": "LDH", "setting": "3 h", "value": 236, "unit": "IU/L"}, {"measurement": "Na", "setting": "3 h", "value": 141.9, "unit": "meq/L"}, {"measurement": "PL", "setting": "3 h", "value": 145.4, "unit": "mg/dL"}, {"measurement": "RALB", "setting": "3 h", "value": 3.9, "unit": "g/dL"}, {"measurement": "TBIL", "setting": "3 h", "value": 0.072, "unit": "mg/dL"}, {"measurement": "TC", "setting": "3 h", "value": 91.2, "unit": "mg/dL"}, {"measurement": "TG", "setting": "3 h", "value": 56.5, "unit": "mg/dL"}, {"measurement": "TP", "setting": "3 h", "value": 5.4, "unit": "g/dL"}, {"measurement": "gamma-GTP", "setting": "3 h", "value": 0.9, "unit": "IU/L"}, {"measurement": "TERMINAL_BW", "setting": "6 h", "value": 213.7, "unit": "g"}, {"measurement": "Bas", "setting": "6 h", "value": 0, "unit": "%"}, {"measurement": "Eos", "setting": "6 h", "value": 0.8, "unit": "%"}, {"measurement": "Ht", "setting": "6 h", "value": 37.3, "unit": "%"}, {"measurement": "Lym", "setting": "6 h", "value": 76.4, "unit": "%"}, {"measurement": "MCH", "setting": "6 h", "value": 21.3, "unit": "pg"}, {"measurement": "Mono", "setting": "6 h", "value": 3.2, "unit": "%"}, {"measurement": "RBC", "setting": "6 h", "value": 589.2, "unit": "x10_4/ul"}, {"measurement": "Ret", "setting": "6 h", "value": 9, "unit": "%"}, {"measurement": "KIDNEY_L", "setting": "6 h", "value": 0.9, "unit": "g"}, {"measurement": "KIDNEY_R", "setting": "6 h", "value": 1, "unit": "g"}, {"measurement": "KIDNEY_TOTAL", "setting": "6 h", "value": 1.9, "unit": "g"}, {"measurement": "LIVER", "setting": "6 h", "value": 9.1, "unit": "g"}, {"measurement": "ALP", "setting": "6 h", "value": 1266.2, "unit": "IU/L"}, {"measurement": "ALT", "setting": "6 h", "value": 56.2, "unit": "IU/L"}, {"measurement": "AST", "setting": "6 h", "value": 78.6, "unit": "IU/L"}, {"measurement": "CRE", "setting": "6 h", "value": 0.2, "unit": "mg/dL"}, {"measurement": "Ca", "setting": "6 h", "value": 9.6, "unit": "mg/dL"}, {"measurement": "DBIL", "setting": "6 h", "value": 0.024, "unit": "mg/dL"}, {"measurement": "IP", "setting": "6 h", "value": 9.1, "unit": "mg/dL"}, {"measurement": "K", "setting": "6 h", "value": 3.9, "unit": "meq/L"}, {"measurement": "LDH", "setting": "6 h", "value": 184.6, "unit": "IU/L"}, {"measurement": "Na", "setting": "6 h", "value": 140.7, "unit": "meq/L"}, {"measurement": "PL", "setting": "6 h", "value": 150.8, "unit": "mg/dL"}, {"measurement": "RALB", "setting": "6 h", "value": 3.8, "unit": "g/dL"}, {"measurement": "TBIL", "setting": "6 h", "value": 0.092, "unit": "mg/dL"}, {"measurement": "TC", "setting": "6 h", "value": 99.6, "unit": "mg/dL"}, {"measurement": "TG", "setting": "6 h", "value": 30, "unit": "mg/dL"}, {"measurement": "TP", "setting": "6 h", "value": 5.4, "unit": "g/dL"}, {"measurement": "gamma-GTP", "setting": "6 h", "value": 0.9, "unit": "IU/L"}, {"measurement": "TERMINAL_BW", "setting": "9 h", "value": 212.3, "unit": "g"}, {"measurement": "Bas", "setting": "9 h", "value": 0, "unit": "%"}, {"measurement": "Eos", "setting": "9 h", "value": 0.2, "unit": "%"}, {"measurement": "Ht", "setting": "9 h", "value": 37.4, "unit": "%"}, {"measurement": "Lym", "setting": "9 h", "value": 76.2, "unit": "%"}, {"measurement": "MCH", "setting": "9 h", "value": 21.1, "unit": "pg"}, {"measurement": "Mono", "setting": "9 h", "value": 2.4, "unit": "%"}, {"measurement": "Neu", "setting": "9 h", "value": 20.4, "unit": "%"}, {"measurement": "RBC", "setting": "9 h", "value": 592.6, "unit": "x10_4/ul"}, {"measurement": "Ret", "setting": "9 h", "value": 9.3, "unit": "%"}, {"measurement": "KIDNEY_L", "setting": "9 h", "value": 0.9, "unit": "g"}, {"measurement": "KIDNEY_R", "setting": "9 h", "value": 1, "unit": "g"}, {"measurement": "KIDNEY_TOTAL", "setting": "9 h", "value": 1.9, "unit": "g"}, {"measurement": "LIVER", "setting": "9 h", "value": 8.6, "unit": "g"}, {"measurement": "ALP", "setting": "9 h", "value": 1162, "unit": "IU/L"}, {"measurement": "ALT", "setting": "9 h", "value": 56.4, "unit": "IU/L"}, {"measurement": "AST", "setting": "9 h", "value": 77.4, "unit": "IU/L"}, {"measurement": "CRE", "setting": "9 h", "value": 0.1, "unit": "mg/dL"}, {"measurement": "Ca", "setting": "9 h", "value": 9.6, "unit": "mg/dL"}, {"measurement": "DBIL", "setting": "9 h", "value": 0.028, "unit": "mg/dL"}, {"measurement": "IP", "setting": "9 h", "value": 8.7, "unit": "mg/dL"}, {"measurement": "K", "setting": "9 h", "value": 3.8, "unit": "meq/L"}, {"measurement": "LDH", "setting": "9 h", "value": 210.6, "unit": "IU/L"}, {"measurement": "Na", "setting": "9 h", "value": 142.6, "unit": "meq/L"}, {"measurement": "PL", "setting": "9 h", "value": 148.2, "unit": "mg/dL"}, {"measurement": "RALB", "setting": "9 h", "value": 3.8, "unit": "g/dL"}, {"measurement": "TBIL", "setting": "9 h", "value": 0.1, "unit": "mg/dL"}, {"measurement": "TC", "setting": "9 h", "value": 98, "unit": "mg/dL"}, {"measurement": "TG", "setting": "9 h", "value": 29, "unit": "mg/dL"}, {"measurement": "TP", "setting": "9 h", "value": 5.4, "unit": "g/dL"}, {"measurement": "gamma-GTP", "setting": "9 h", "value": 0.9, "unit": "IU/L"}, {"measurement": "TERMINAL_BW", "setting": "24 h", "value": 204, "unit": "g"}, {"measurement": "Bas", "setting": "24 h", "value": 0, "unit": "%"}, {"measurement": "Eos", "setting": "24 h", "value": 0.5, "unit": "%"}, {"measurement": "Ht", "setting": "24 h", "value": 40.5, "unit": "%"}, {"measurement": "Lym", "setting": "24 h", "value": 59.8, "unit": "%"}, {"measurement": "MCH", "setting": "24 h", "value": 21, "unit": "pg"}, {"measurement": "Mono", "setting": "24 h", "value": 3.5, "unit": "%"}, {"measurement": "Neu", "setting": "24 h", "value": 35.8, "unit": "%"}, {"measurement": "RBC", "setting": "24 h", "value": 632, "unit": "x10_4/ul"}, {"measurement": "Ret", "setting": "24 h", "value": 8.1, "unit": "%"}, {"measurement": "KIDNEY_L", "setting": "24 h", "value": 0.9, "unit": "g"}, {"measurement": "KIDNEY_R", "setting": "24 h", "value": 0.9, "unit": "g"}, {"measurement": "KIDNEY_TOTAL", "setting": "24 h", "value": 1.9, "unit": "g"}, {"measurement": "LIVER", "setting": "24 h", "value": 8.6, "unit": "g"}, {"measurement": "ALP", "setting": "24 h", "value": 1061.5, "unit": "IU/L"}, {"measurement": "ALT", "setting": "24 h", "value": 76.8, "unit": "IU/L"}, {"measurement": "AST", "setting": "24 h", "value": 126, "unit": "IU/L"}, {"measurement": "CRE", "setting": "24 h", "value": 0.2, "unit": "mg/dL"}, {"measurement": "DBIL", "setting": "24 h", "value": 0.03, "unit": "mg/dL"}, {"measurement": "IP", "setting": "24 h", "value": 8.4, "unit": "mg/dL"}, {"measurement": "K", "setting": "24 h", "value": 3.5, "unit": "meq/L"}, {"measurement": "LDH", "setting": "24 h", "value": 272, "unit": "IU/L"}, {"measurement": "Na", "setting": "24 h", "value": 143.2, "unit": "meq/L"}, {"measurement": "PL", "setting": "24 h", "value": 144.8, "unit": "mg/dL"}, {"measurement": "RALB", "setting": "24 h", "value": 3.9, "unit": "g/dL"}, {"measurement": "TBIL", "setting": "24 h", "value": 0.1, "unit": "mg/dL"}, {"measurement": "TC", "setting": "24 h", "value": 111.2, "unit": "mg/dL"}, {"measurement": "TG", "setting": "24 h", "value": 39.6, "unit": "mg/dL"}, {"measurement": "TP", "setting": "24 h", "value": 5.4, "unit": "g/dL"}, {"measurement": "gamma-GTP", "setting": "24 h", "value": 1.4, "unit": "IU/L"}]}
